Source: ChEMBL document CHEMBL5380863 (J Med Chem, 2023)
Values belong to the molecule of their own block, whether it stands above or below them.

Tests used:
A549 = test: cells; format: functional, cell-based; conditions: Homo sapiens, A549, 72 h
PC-3 = test: cells; format: functional, cell-based; conditions: Homo sapiens, PC-3, 72 h
K562 = test: cells; format: functional, cell-based; conditions: Homo sapiens, K562, 72 h
MCF7 = test: cells; format: functional, cell-based; conditions: Homo sapiens, MCF7, 72 h
HEL = test: cells; format: functional, cell-based; conditions: Homo sapiens, 72 h
HeLa = test: cells; format: functional, cell-based; conditions: Homo sapiens, 72 h
HL-60 = test: cells; format: functional, cell-based; conditions: Homo sapiens, HL-60, 72 h
[1] = biological target: T1, Tyrosine-protein kinase JAK2 (Homo sapiens, UniProt O60674)
[2] = biological target: Non-receptor tyrosine-protein kinase TYK2 (Homo sapiens, UniProt P29597)
Histone deacetylase 11 = Histone deacetylase 11 (Homo sapiens, UniProt Q96DB2)
Histone deacetylase = format: cell-based, Homo sapiens; conditions: hela
[3] = biological target: Activated CDC42 kinase 1 (Homo sapiens) (UniProt Q07912); conditions: dose 500.0 nM
in vitro [4] = conditions: Sprague-Dawley, rat, plasma
[5] = biological target: Tyrosine-protein kinase Fyn (Homo sapiens) (UniProt P06241); conditions: dose 500.0 nM
in vivo [6] = conditions: Sprague-Dawley, rat, po, 15 mg/kg
in vivo [7] = conditions: Sprague-Dawley, rat, po, 15 mg/kg; remark: listed apart in the source
[8] = biological target: Tyrosine-protein kinase JAK3 (Homo sapiens, UniProt P52333)
Histone deacetylase 3 = Histone deacetylase 3 (Homo sapiens, UniProt O15379)
in vivo [9] = conditions: Sprague-Dawley, rat, iv, 3 mg/kg
[10] = biological target: Polyamine deacetylase HDAC10 (Homo sapiens, UniProt Q969S8)
Histone deacetylase 5 = Histone deacetylase 5 (Homo sapiens, UniProt Q9UQL6)
Histone deacetylase 2 = Histone deacetylase 2 (Homo sapiens, UniProt Q92769)
Histone deacetylase 9 = Histone deacetylase 9 (Homo sapiens, UniProt Q9UKV0)
in vivo [11] = conditions: Sprague-Dawley, rat, iv, 3 mg/kg; remark: listed apart in the source
Histone deacetylase 1 = Histone deacetylase 1 (Homo sapiens, UniProt Q13547); format: cell-based, HeLa
Histone deacetylase 4 = Histone deacetylase 4 (Homo sapiens, UniProt P56524)
[12] = biological target: T2, Tyrosine-protein kinase JAK1 (Homo sapiens, UniProt P23458); conditions: dose 500.0 nM
in vivo [13] = conditions: Sprague-Dawley, rat, po, 15 mg/kg; remark: listed apart in the source
in vivo [14] = conditions: Sprague-Dawley, rat, iv, 3 mg/kg; remark: listed apart in the source
in vivo [15] = conditions: Sprague-Dawley, rat, po, 15 mg/kg; remark: listed apart in the source
[16] = biological target: Muscle, skeletal receptor tyrosine-protein kinase (Homo sapiens) (UniProt O15146); conditions: dose 500.0 nM
in vivo [17] = conditions: Sprague-Dawley, rat, po, 15 mg/kg; remark: listed apart in the source
in vivo [18] = conditions: Sprague-Dawley, rat, iv, 3 mg/kg; remark: listed apart in the source
[19] = biological target: Protein deacetylase HDAC6 (Homo sapiens, UniProt Q9UBN7)
in vivo [20] = conditions: Sprague-Dawley, rat, po, 15 mg/kg; remark: listed apart in the source
[21] = biological target: T2, Tyrosine-protein kinase JAK1
in vivo [22] = conditions: Sprague-Dawley, rat, iv, 3 mg/kg; remark: listed apart in the source
Histone deacetylase 8 = Histone deacetylase 8 (Homo sapiens, UniProt Q9BY41)
in vitro [23] = conditions: Sprague-Dawley, rat, plasma; remark: listed apart in the source
in vivo [24] = conditions: Sprague-Dawley, rat, po, 15 mg/kg; remark: listed apart in the source
Histone deacetylase 7 = Histone deacetylase 7 (Homo sapiens, UniProt Q8WUI4)
[25] = rat, in vivo, po, 15 mg/kg, 24 h
[26] = biological target: T1, Tyrosine-protein kinase JAK2; conditions: dose 500.0 nM

T1 sequence (O60674 whole entry): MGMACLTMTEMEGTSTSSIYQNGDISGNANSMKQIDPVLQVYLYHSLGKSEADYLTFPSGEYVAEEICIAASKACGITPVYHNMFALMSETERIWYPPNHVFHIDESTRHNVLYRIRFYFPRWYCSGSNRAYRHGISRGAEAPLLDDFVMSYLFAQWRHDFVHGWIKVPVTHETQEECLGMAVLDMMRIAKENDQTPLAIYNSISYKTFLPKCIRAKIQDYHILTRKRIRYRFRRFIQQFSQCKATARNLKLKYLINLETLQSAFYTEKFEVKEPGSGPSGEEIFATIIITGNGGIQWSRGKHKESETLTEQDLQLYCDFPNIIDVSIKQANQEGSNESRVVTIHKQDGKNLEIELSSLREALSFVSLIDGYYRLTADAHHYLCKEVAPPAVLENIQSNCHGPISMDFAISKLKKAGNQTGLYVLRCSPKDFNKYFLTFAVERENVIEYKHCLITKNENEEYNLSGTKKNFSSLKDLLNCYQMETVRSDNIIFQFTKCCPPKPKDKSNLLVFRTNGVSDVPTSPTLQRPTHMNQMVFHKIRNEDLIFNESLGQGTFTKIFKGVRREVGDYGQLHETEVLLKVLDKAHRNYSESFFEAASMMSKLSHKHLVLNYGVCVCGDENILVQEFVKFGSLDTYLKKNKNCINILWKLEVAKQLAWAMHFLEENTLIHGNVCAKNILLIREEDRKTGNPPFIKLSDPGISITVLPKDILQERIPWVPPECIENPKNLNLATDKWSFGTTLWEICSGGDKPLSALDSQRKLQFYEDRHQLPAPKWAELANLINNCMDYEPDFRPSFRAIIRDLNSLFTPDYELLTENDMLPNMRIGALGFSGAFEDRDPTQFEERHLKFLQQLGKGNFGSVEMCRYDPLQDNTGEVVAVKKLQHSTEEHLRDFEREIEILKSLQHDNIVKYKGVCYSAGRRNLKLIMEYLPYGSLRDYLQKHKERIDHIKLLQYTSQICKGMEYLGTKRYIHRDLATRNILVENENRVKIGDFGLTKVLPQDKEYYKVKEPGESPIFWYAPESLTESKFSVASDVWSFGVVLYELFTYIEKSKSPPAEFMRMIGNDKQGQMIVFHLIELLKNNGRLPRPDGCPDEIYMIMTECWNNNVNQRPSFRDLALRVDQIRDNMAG
T2 sequence (P23458 whole entry): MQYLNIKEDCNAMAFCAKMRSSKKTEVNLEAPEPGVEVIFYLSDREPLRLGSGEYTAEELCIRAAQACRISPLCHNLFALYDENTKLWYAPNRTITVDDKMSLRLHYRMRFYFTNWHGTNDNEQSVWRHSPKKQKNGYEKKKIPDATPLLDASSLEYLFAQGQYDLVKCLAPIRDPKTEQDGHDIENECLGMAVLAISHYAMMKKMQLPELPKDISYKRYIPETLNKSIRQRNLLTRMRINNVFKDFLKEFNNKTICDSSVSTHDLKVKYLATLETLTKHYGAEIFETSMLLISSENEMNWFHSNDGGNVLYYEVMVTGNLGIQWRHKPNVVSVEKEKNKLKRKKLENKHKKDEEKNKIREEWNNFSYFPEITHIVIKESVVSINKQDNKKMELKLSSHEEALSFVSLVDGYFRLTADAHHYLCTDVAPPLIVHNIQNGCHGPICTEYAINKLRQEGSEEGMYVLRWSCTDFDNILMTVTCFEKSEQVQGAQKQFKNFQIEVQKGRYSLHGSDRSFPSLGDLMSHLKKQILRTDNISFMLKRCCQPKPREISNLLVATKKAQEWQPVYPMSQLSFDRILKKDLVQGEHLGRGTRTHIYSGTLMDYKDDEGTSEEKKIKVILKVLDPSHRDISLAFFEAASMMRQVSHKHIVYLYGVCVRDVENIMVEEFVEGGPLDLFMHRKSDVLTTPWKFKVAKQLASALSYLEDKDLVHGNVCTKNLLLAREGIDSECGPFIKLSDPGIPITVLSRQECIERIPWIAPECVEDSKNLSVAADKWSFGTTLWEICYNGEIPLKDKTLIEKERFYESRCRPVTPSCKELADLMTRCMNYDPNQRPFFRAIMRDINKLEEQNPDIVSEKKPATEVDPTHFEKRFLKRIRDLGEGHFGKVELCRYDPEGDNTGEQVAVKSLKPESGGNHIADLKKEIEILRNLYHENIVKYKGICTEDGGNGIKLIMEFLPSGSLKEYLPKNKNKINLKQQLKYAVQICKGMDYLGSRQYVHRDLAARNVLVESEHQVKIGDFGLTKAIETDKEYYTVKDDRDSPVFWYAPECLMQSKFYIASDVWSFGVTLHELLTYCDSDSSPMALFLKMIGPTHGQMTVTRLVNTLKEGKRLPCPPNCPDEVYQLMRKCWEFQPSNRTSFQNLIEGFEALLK
Sequence of Protein deacetylase HDAC6 (Q9UBN7 whole entry): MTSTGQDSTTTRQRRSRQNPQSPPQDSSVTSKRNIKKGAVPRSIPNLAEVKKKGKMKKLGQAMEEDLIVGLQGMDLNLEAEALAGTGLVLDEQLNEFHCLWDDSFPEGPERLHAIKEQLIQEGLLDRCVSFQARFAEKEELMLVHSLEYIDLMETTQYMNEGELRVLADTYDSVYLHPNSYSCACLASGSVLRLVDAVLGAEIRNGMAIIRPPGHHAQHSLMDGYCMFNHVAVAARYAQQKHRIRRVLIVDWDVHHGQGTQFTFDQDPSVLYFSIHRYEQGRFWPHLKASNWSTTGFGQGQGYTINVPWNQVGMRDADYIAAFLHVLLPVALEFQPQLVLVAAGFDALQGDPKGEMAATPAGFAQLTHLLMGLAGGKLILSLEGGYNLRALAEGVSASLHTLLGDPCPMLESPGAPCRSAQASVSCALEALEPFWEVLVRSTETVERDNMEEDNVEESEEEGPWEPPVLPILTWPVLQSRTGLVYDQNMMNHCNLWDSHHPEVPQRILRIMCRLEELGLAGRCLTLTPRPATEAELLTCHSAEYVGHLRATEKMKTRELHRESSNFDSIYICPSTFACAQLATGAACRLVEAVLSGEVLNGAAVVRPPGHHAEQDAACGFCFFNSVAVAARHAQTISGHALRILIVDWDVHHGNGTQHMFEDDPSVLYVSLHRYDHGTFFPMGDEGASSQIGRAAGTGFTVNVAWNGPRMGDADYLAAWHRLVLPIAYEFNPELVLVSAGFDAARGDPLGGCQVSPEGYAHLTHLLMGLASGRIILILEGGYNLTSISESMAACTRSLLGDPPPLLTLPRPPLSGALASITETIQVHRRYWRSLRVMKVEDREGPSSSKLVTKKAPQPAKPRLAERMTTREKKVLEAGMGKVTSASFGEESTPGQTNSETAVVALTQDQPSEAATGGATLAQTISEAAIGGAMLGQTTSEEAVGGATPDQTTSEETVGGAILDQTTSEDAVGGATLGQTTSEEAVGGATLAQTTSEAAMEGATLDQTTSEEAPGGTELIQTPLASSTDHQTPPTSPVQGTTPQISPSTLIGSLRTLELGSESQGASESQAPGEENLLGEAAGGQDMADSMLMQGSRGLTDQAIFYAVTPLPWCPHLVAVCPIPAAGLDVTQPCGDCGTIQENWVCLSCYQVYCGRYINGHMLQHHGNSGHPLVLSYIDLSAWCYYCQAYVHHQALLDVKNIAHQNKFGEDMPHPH
Sequence of Histone deacetylase 9 (Q9UKV0 whole entry): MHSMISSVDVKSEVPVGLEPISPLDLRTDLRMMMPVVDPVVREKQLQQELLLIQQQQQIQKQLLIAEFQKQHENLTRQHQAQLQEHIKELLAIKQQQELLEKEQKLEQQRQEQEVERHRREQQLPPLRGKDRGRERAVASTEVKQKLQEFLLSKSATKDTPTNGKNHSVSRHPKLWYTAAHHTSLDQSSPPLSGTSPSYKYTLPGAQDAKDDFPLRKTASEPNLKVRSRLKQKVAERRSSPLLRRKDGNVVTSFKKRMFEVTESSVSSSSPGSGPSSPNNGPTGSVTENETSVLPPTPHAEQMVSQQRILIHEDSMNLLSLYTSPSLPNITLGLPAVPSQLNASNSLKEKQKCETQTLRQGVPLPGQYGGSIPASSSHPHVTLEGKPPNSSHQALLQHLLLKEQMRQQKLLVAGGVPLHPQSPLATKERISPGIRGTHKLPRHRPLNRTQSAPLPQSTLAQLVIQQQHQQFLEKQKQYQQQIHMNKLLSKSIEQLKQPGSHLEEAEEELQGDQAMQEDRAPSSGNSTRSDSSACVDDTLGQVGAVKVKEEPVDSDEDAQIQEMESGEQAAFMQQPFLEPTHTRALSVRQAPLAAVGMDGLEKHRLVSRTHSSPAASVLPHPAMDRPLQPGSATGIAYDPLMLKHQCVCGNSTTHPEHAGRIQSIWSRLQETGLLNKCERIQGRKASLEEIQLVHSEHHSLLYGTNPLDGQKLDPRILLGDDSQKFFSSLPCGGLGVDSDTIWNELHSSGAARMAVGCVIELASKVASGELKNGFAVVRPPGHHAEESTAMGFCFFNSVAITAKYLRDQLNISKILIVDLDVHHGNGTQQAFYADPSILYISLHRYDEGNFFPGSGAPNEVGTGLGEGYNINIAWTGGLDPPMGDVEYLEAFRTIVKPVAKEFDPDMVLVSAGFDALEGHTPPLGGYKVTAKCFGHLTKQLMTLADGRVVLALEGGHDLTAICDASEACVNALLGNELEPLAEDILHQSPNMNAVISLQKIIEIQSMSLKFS
Sequence of Histone deacetylase 3 (O15379 whole entry): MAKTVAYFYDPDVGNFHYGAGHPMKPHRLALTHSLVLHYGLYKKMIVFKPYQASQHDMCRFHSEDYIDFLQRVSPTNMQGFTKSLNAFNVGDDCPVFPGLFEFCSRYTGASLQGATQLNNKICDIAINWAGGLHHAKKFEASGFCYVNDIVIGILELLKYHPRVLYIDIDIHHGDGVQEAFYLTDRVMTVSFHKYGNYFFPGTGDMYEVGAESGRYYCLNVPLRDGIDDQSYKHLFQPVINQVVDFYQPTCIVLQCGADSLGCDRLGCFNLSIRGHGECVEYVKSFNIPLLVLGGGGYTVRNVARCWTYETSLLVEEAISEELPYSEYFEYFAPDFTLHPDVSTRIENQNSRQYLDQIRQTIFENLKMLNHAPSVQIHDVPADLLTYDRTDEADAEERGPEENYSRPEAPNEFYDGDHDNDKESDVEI

- IC50 (A549): 2030 nM
- IC50 (PC-3): 6290 nM
- IC50 (K562): 4370 nM
- IC50 (MCF7): 4840 nM
- IC50 (HEL): 1270 nM
- IC50 (HeLa): 7230 nM
- IC50 (HL-60): 6700 nM
SMILES: Cc1cnc(Nc2ccc(OCCCCCC(=O)NO)c(Cl)c2)nc1Nc1cccc(S(=O)(=O)NC(C)(C)C)c1

- IC50 (A549): 2160 nM
- IC50 (PC-3): 3870 nM
- IC50 (K562): 2070 nM
- IC50 (MCF7): 6950 nM
- IC50 (HEL): 730 nM
- IC50 (HeLa): 11900 nM
- IC50 (HL-60): 12000 nM
SMILES: Cc1cnc(Nc2ccc(OCCCCCCC(=O)NO)c(Br)c2)nc1Nc1cccc(S(=O)(=O)NC(C)(C)C)c1

- IC50 (A549): 2240 nM
- IC50 (PC-3): 4870 nM
- IC50 (K562): 5900 nM
- IC50 (MCF7): 8720 nM
- IC50 (HEL): 1080 nM
- IC50 (HeLa): 7480 nM
- IC50 (HL-60): 11100 nM
SMILES: Cc1cnc(Nc2ccc(OCCCCCCC(=O)NO)c(C(F)(F)F)c2)nc1Nc1cccc(S(=O)(=O)NC(C)(C)C)c1

- IC50 (A549): 2330 nM
- IC50 (PC-3): 2760 nM
- IC50 (K562): 4220 nM
- IC50 (MCF7): 3220 nM
- IC50 (HEL): 2520 nM
- IC50 (HeLa): 3960 nM
- IC50 (HL-60): 2580 nM
SMILES: Cc1cnc(Nc2ccc(OCCCCCC(=O)NO)cc2)nc1Nc1cccc(S(=O)(=O)NC(C)(C)C)c1

- IC50 (A549): 2910 nM
- IC50 (PC-3): 2870 nM
- IC50 (K562): 3450 nM
- IC50 (MCF7): 2930 nM
- IC50 (HEL): 2440 nM
- IC50 (HeLa): 5100 nM
- IC50 (HL-60): 6850 nM
SMILES: Cc1cnc(Nc2ccc(OCCCCCC(=O)NO)c(C(F)(F)F)c2)nc1Nc1cccc(S(=O)(=O)NC(C)(C)C)c1

- IC50 (A549): 1490 nM
- IC50 (PC-3): 3670 nM
- IC50 (K562): 5490 nM
- IC50 (MCF7): 4680 nM
- IC50 (HEL): 1650 nM
- IC50 (HeLa): 7270 nM
- IC50 (HL-60): 4410 nM
SMILES: COc1cc(Nc2ncc(C)c(Nc3cccc(S(=O)(=O)NC(C)(C)C)c3)n2)ccc1OCCCCCCC(=O)NO

- IC50 (A549): 1430 nM
- IC50 (PC-3): 4060 nM
- IC50 (K562): 4700 nM
- IC50 (MCF7): 6060 nM
- IC50 (HEL): 810 nM
- IC50 (HeLa): 11500 nM
- IC50 (HL-60): 7130 nM
SMILES: Cc1cnc(Nc2ccc(OCCCCCCC(=O)NO)c(Cl)c2)nc1Nc1cccc(S(=O)(=O)NC(C)(C)C)c1

- IC50 [1]: 4.33 nM
SMILES: Cc1cnc(Nc2ccc(OCC(=O)NO)cc2)nc1Nc1cccc(S(=O)(=O)NC(C)(C)C)c1

- IC50 (A549): 2950 nM
- IC50 (PC-3): 4940 nM
- IC50 (K562): 7160 nM
- IC50 (MCF7): 9060 nM
- IC50 (HEL): 1660 nM
- IC50 (HeLa): 10900 nM
- IC50 (HL-60): 6500 nM
SMILES: Cc1cnc(Nc2ccc(OCCCCCCCC(=O)NO)cc2)nc1Nc1cccc(S(=O)(=O)NC(C)(C)C)c1

- IC50 (A549): 3080 nM
- IC50 (PC-3): 4920 nM
- IC50 (K562): 8850 nM
- IC50 (MCF7): 8930 nM
- IC50 (HEL): 1730 nM
- IC50 (HeLa): > 50000 nM
- IC50 (HL-60): 4910 nM
SMILES: Cc1cc(Nc2ncc(C)c(Nc3cccc(S(=O)(=O)NC(C)(C)C)c3)n2)ccc1OCCCCCCC(=O)NO

- IC50 [2]: 780 nM
- IC50 (A549): 1270 nM
- IC50 (Histone deacetylase 11): 931 nM
- IC50 (Histone deacetylase): 0.2 nM
- inhibition [3]: 70%
- AUC(0-t) at 22 h (in vitro [4]): 169000 ng·h/mL
- inhibition [5]: 80%
- MRT at 24 h (in vivo [6]): 5.11 h
- half-life at 24 h (in vivo [7]): 1.81 h
- IC50 [8]: 954 nM
- IC50 (Histone deacetylase 3): 73.9 nM
- IC50 (PC-3): 3040 nM
- AUC(0-t) at 24 h (in vivo [9]): 508 ng·h/mL
- IC50 [10]: 127 nM
- IC50 (K562): 1220 nM
- IC50 (Histone deacetylase 5): > 10000 nM
- IC50 (Histone deacetylase 2): 299 nM
- IC50 (Histone deacetylase 9): > 10000 nM
- MRT at 24 h (in vivo [11]): 0.161 h
- IC50 (Histone deacetylase 1): 0.43 nM
- IC50 (MCF7): 1980 nM
- IC50 (Histone deacetylase 4): > 10000 nM
- inhibition [12]: 80%
- IC50 (HEL): 240 nM
- CL/F at 24 h (in vivo [13]): 98.3 mL/min/kg
- half-life at 24 h (in vivo [14]): 6.72 min
- IC50 (HeLa): 3250 nM
- Tmax at 24 h (in vivo [15]): 2.55 h
- inhibition [16]: 80%
- bioavailability at 24 h (in vivo [17]): 21.6%
- clearance at 24 h (in vivo [18]): 98.3 mL/min/kg
- IC50 [19]: 6.98 nM
- IC50 (HL-60): 3370 nM
- Cmax at 24 h (in vivo [20]): 79.1 ng/mL
- IC50 [21]: 41 nM
- Vd at 24 h (in vivo [22]): 0.951 L/kg
- IC50 (Histone deacetylase 8): > 10000 nM
- half-life at 22 h (in vitro [23]): 8.49 h
- AUC(0-t) at 24 h (in vivo [24]): 549 ng·h/mL
- IC50 (Histone deacetylase 7): > 10000 nM
- Vd [25]: 15.411 L/kg
SMILES: Cc1cnc(Nc2ccc(OCCCCCCC(=O)NO)c(F)c2)nc1Nc1cccc(S(=O)(=O)NC(C)(C)C)c1

- IC50 [2]: 414 nM
- IC50 (A549): 730 nM
- IC50 (Histone deacetylase 11): 724 nM
- IC50 (Histone deacetylase): 0.17 nM
- inhibition [3]: 70%
- inhibition [26]: > 95%
- AUC(0-t) at 22 h (in vitro [4]): 217000 ng·h/mL
- inhibition [5]: > 95%
- MRT at 24 h (in vivo [6]): 6.02 h
- half-life at 24 h (in vivo [7]): 2.08 h
- IC50 [8]: 595 nM
- IC50 (Histone deacetylase 3): 58.7 nM
- IC50 (PC-3): 2520 nM
- AUC(0-t) at 24 h (in vivo [9]): 656 ng·h/mL
- IC50 [10]: 116 nM
- IC50 (K562): 1870 nM
- IC50 (Histone deacetylase 5): > 10000 nM
- IC50 (Histone deacetylase 2): 303 nM
- IC50 (Histone deacetylase 9): > 10000 nM
- MRT at 24 h (in vivo [11]): 0.185 h
- IC50 (Histone deacetylase 1): 0.34 nM
- IC50 (MCF7): 1830 nM
- IC50 (Histone deacetylase 4): > 10000 nM
- inhibition [12]: 80%
- IC50 (HEL): 330 nM
- CL/F at 24 h (in vivo [13]): 76 mL/min/kg
- half-life at 24 h (in vivo [14]): 7.68 min
- IC50 (HeLa): 2880 nM
- Tmax at 24 h (in vivo [15]): 2.91 h
- inhibition [16]: 70%
- bioavailability at 24 h (in vivo [17]): 22.7%
- clearance at 24 h (in vivo [18]): 76.2 mL/min/kg
- IC50 [19]: 4.44 nM
- IC50 (HL-60): 2580 nM
- Cmax at 24 h (in vivo [20]): 93.3 ng/mL
- IC50 [21]: 27.1 nM
- Vd at 24 h (in vivo [22]): 0.845 L/kg
- IC50 (Histone deacetylase 8): > 10000 nM
- half-life at 22 h (in vitro [23]): 11.1 h
- AUC(0-t) at 24 h (in vivo [24]): 745 ng·h/mL
- IC50 (Histone deacetylase 7): > 10000 nM
- Vd [25]: 13.708 L/kg
SMILES: Cc1cnc(Nc2ccc(OCCCCCCC(=O)NO)cc2)nc1Nc1cccc(S(=O)(=O)NC(C)(C)C)c1

- IC50 [1]: 12.3 nM
SMILES: Cc1cnc(Nc2ccc(OCCCC(=O)NO)cc2)nc1Nc1cccc(S(=O)(=O)NC(C)(C)C)c1
